The target of test [1] is T1, WT TALK-2 channels (Homo sapiens, UniProt Q96T54).
T1 sequence (Q96T54 1-332): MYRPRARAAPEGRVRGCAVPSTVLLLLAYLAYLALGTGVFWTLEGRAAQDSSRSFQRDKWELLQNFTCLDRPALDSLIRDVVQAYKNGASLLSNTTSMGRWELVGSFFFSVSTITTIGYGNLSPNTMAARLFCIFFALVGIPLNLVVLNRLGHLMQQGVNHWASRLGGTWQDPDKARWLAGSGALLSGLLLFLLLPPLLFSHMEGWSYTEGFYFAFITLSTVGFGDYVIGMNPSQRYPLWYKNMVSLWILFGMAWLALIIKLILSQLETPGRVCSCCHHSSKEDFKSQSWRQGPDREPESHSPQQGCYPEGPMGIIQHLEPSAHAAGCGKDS
The test can be described thus: Pore blocker inhibition (dose-response, residual currents) in inside-out patches at +40 mV. In kind it is cell-based. More on the design: expressed in transfected cells; host or cells: Xenopus laevis oocytes (cRNA injection), excised inside-out patches. To be noted: for blocker inhibition upon activation by 2-APB: 2-APB pre-activated.
Protocol: (§1) Data shown are the mean ± s.e.m and the number (n) of independent experiments and repeats of representative measurements with similar results is indicated in the figure.
(§2) Electrophysiological recordings: Excised patch measurements in inside-out configuration under voltage-clamp conditions were performed at room temperature (22 – 24 °C). Patch pipettes were made from thick-walled borosilicate glass GB 200TF-8P (Science Products, Germany), had resistances of 0.2–0.5 MΩ (tip diameter of 10 - 25 µm) and filled with a pipette solution (in mM): 120 KCl, 10 HEPES and 3.6 CaCl2 (pH 7.0 - 8.5 adjusted with KOH/HCl) or 120 KCl, 10 AMPSO and 3.6 CaCl2 (pH 9.0 - 10.5 adjusted with KOH/HCl). Intracellular bath solutions and compounds were applied to the cytoplasmic side of excised patches for the various K^+ channels via a gravity flow multi-barrel pipette system. Intracellular solution had the following composition (in mM): 120 KCl, 10 HEPES, 2 EGTA and 1 Pyrophosphate (pH adjusted with KOH/HCl). In other intracellular bath solutions, K^+ was replaced by Rb^+ (pH 7.4 adjusted with RbOH/HCl). Currents were recorded with an EPC10 amplifier (HEKA electronics, Germany) and sampled at 10 kHz or higher and filtered with 3 kHz (-3 dB) or higher as appropriate for sampling rate.
(§3) Data analysis and statistics were done using Fitmaster (HEKA electronics, version: v2x73.5, Germany), Microsoft Excel 2021 (Microsoft Corporation, USA), and Igor Pro 9 software (WaveMetrics Inc., USA). Recorded currents were analyzed from stable membrane patches at a voltage defined in the respective figure legend or with a voltage protocol as indicated in the respective figure. […] Percentage inhibition or residual currents upon blocker application for a ligand (drug or bioactive lipid) was calculated from stable currents of excised membrane patches using the following Eqs. 2 and 3:2 %inhibition=1−Iinhibited/Ibasal*100 3 Residual current=100−%inhibition where Iinhibited refers to the stable current level recorded in the presence of a given concentration of a drug or bioactive lipid and Ibasal to the measured current before ligand application.

Test [2] addresses T2, TALK-2 L264A mutant channels (Homo sapiens, UniProt Q96T54, L264A).
T2 sequence (Q96T54 1-332 L264A): T1 sequence (Q96T54 1-332) with L264A
The description is as above. To be noted: TALK-2 L264A. More on the design: expressed in transfected cells; host or cells: Xenopus laevis oocytes (cRNA injection), excised inside-out patches. Type of test: cell-based.
Protocol: as §1, §2, §3

Test [3] addresses T3, WT TALK-2 channels (human K2P17.1) (Homo sapiens, UniProt Q96T54).
T3 sequence (Q96T54 1-332): T1 sequence (Q96T54 1-332)
As to the kind of experiment: Inside-out patch-clamp, ligand activation of channel currents at +40 mV (oocytes).
Protocol: Oocytes were surgically removed from anesthetized adult females, treated with type II collagenase (Sigma-Aldrich/Merck, Germany) and manually defolliculated. 50 nl of a solution containing the K^+ channel specific cRNA was injected into Dumont stage V - VI oocytes and subsequently incubated at 17 °C in a solution containing (mM): 54 NaCl, 30 KCl, 2.4 NaHCO3, 0.82 MgSO4 x 7 H2O, 0.41 CaCl2, 0.33 Ca(NO3)2 x 4 H2O and 7.5 TRIS (pH 7.4 adjusted with NaOH/HCl) for 1–7 days before use. Electrophysiological recordings: Excised patch measurements in inside-out configuration under voltage-clamp conditions were performed at room temperature (22 – 24 °C). […] Intracellular bath solutions and compounds were applied to the cytoplasmic side of excised patches for the various K^+ channels via a gravity flow multi-barrel pipette system. Intracellular solution had the following composition (in mM): 120 KCl, 10 HEPES, 2 EGTA and 1 Pyrophosphate (pH adjusted with KOH/HCl). In other intracellular bath solutions, K^+ was replaced by Rb^+ (pH 7.4 adjusted with RbOH/HCl). Currents were recorded with an EPC10 amplifier (HEKA electronics, Germany) and sampled at 10 kHz or higher and filtered with 3 kHz (-3 dB) or higher as appropriate for sampling rate.
Recorded currents were analyzed from stable membrane patches at a voltage defined in the respective figure legend or with a voltage protocol as indicated in the respective figure. The fold activation (fold change in (tail) current amplitude) of a ligand (drug or bioactive lipid) was calculated from Eq. 1:1 Fold activationFA=Iactivated/Ibasal where Iactivated represents the stable current level in the presence of a given concentration of a respective ligand and Ibasal the measured current before ligand application. Percentage inhibition or residual currents upon blocker application for a ligand (drug or bioactive lipid) was calculated from stable currents of excised membrane patches using the following Eqs. 2 and 3:2 %inhibition=1−Iinhibited/Ibasal*100 3 Residual current=100−%inhibition where Iinhibited refers to the stable current level recorded in the presence of a given concentration of a drug or bioactive lipid and Ibasal to the measured current before ligand application. The macroscopic half-maximal concentration-inhibition relationship of a ligand was obtained using a Hill-fit for dose-response curves as depicted in Eq. 4:4 %inhibition/activation=Ibase+Imax−Ibase/1+x1/2/x^rate where base and max are the currents in the absence and presence of a respective ligand, x is the concentration of the ligand, x1/2 is the ligand concentration at which the activatory or inhibitory effect is half-maximal, rate is the Hill coefficient.

Test [4] addresses T1, WT TALK-2 channels. The test can be described thus: Cysteine modification assay with MTS-ET, control (inside-out patch). To be noted: basal state or activated with 2-APB or oleoyl-CoA; 1.0 mM MTS-ET.
Protocol: To investigate the latter, we utilized a cysteine modification assay.
Oocytes were surgically removed from anesthetized adult females, treated with type II collagenase (Sigma-Aldrich/Merck, Germany) and manually defolliculated. 50 nl of a solution containing the K^+ channel specific cRNA was injected into Dumont stage V - VI oocytes and subsequently incubated at 17 °C in a solution containing (mM): 54 NaCl, 30 KCl, 2.4 NaHCO3, 0.82 MgSO4 x 7 H2O, 0.41 CaCl2, 0.33 Ca(NO3)2 x 4 H2O and 7.5 TRIS (pH 7.4 adjusted with NaOH/HCl) for 1–7 days before use. Electrophysiological recordings: Excised patch measurements in inside-out configuration under voltage-clamp conditions were performed at room temperature (22 – 24 °C). […] Currents were recorded with an EPC10 amplifier (HEKA electronics, Germany) and sampled at 10 kHz or higher and filtered with 3 kHz (-3 dB) or higher as appropriate for sampling rate.
Data analysis and statistics were done using Fitmaster (HEKA electronics, version: v2x73.5, Germany), Microsoft Excel 2021 (Microsoft Corporation, USA), and Igor Pro 9 software (WaveMetrics Inc., USA). Recorded currents were analyzed from stable membrane patches at a voltage defined in the respective figure legend or with a voltage protocol as indicated in the respective figure.
The target of test [5] is T4, WT TREK-2 channels (human K2P10.1) (Homo sapiens, UniProt P57789).
T4 construct: expressed in transfected cells; host or cells: Xenopus laevis oocytes (cRNA injection), excised inside-out patches
T4 sequence (P57789 1-538): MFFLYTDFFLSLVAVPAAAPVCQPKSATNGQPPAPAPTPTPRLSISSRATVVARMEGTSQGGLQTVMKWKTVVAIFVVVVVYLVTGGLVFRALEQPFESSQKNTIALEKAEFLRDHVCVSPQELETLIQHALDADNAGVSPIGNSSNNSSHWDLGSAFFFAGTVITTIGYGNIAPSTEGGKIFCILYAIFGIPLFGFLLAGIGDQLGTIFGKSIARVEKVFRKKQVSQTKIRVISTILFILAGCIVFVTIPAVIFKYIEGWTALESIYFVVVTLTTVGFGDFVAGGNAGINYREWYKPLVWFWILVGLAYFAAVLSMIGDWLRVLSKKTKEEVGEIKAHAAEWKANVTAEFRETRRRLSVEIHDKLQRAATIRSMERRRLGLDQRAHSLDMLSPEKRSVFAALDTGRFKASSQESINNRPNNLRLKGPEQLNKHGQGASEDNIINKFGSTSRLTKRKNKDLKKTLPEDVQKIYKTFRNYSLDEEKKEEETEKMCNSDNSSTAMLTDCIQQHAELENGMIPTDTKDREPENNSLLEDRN
The test can be described thus: Tail current deactivation kinetics with pore blocker (inside-out patch). In kind it is cell-based. To be noted: intracellular Rb+ without blocker.

In test [6] the target is T1, WT TALK-2 channels. Described as above. Type of test: cell-based. Details: expressed in transfected cells; host or cells: Xenopus laevis oocytes (cRNA injection), excised inside-out patches. To be noted: intracellular Rb+ without blocker; step to +100 mV, repolarization to -80 mV. The source says: In voltage-gated K^+ (Kv) channels, the closing of the lower gate can be prevented by the binding of blockers such as tetra-pentyl-ammonium (TPenA) in the pore cavity and, thereby, causing a slowing of the deactivation kinetics which is known as the ‘foot in the door’ effect[33],[34]. To test for such a mechanism in TALK-2, we activated the channels with a voltage step to +100 mV in the presence of intracellular Rb^+ followed by a repolarization step to -80 mV (to induce tail currents) with and without the K2P channel pore blocker TPenA. […] We hypothesize, that the two gates are strongly coupled and, therefore, opening the SF gate by depolarization should also open the lower gate, which then consequently would allow blocker (like TPenA) binding within the pore cavity (Fig. 5a cartoon). Upon repolarization, however, the bound TPenA blocker obstructs closure of the lower gate and thereby, hinders the SF from closure/inactivation (gate coupling).

Structures are written as SMILES. Residue numbers refer to the chain shown, from its start. Entries after “also recorded” stand apart in the source; their conditions may differ.

Regarding `COc1ccc(CC(=O)NCc2ccccc2-c2ccccc2C(=O)NCc2ccc(F)cc2F)cc1` [A1899], the “blocker inhibition upon activation by 2-APB” value in test [1] is “strong inhibition”. The “Residual currents with 10 µM A1899” value is 50.53% in test [1] (TALK-2 WT + 1.0 mM 2-APB), 100.95% in test [1] (TALK-2 WT) and 41.55% in test [2] (10 µM A1899). In addition, the “blocker inhibition of unstimulated TALK-2 channels” value in test [1] is listed as “little inhibition”.
Consider `COc1ccc(CC(=O)NCc2ccccc2-c2ccccc2C(=O)NCCc2cccnc2)cc1` [AVE0118], for which, in test [1], the “blocker inhibition upon activation by 2-APB” value is listed as “strong inhibition”. The “Residual currents with 50 µM AVE0118” value was 12.33% in test [1] (TALK-2 WT + 1.0 mM 2-APB), 96.7% in test [1] (TALK-2 WT) and 14.56% in test [2] (50 µM AVE0118). For the same compound, the “blocker inhibition of unstimulated TALK-2 channels” value in test [1] is recorded as “little inhibition”.
With `c1ccc(-c2nn[nH]n2)c(Nc2cccc3c2CCCC3)c1` [BL-1249], in test [3] (50 µM BL-1249, +40 mV), the “activation of TALK-2 channels by BL-1249” value is “robust and reversible channel activation”. Further, in test [3] (50 µM, TALK-2 WT), the “Fold activation 50 µM BL-1249” value is on record as 72.38 fold.
Turning to `C[N+](C)(C)CCSS(C)(=O)=O.[Cl-]` [MTS-ET], in test [4], the “effect of MTS-ET on WT TALK-2 currents” value is “almost no effect; also recorded: insensitive”.
As for `[Rb+]` [Rb^+], in test [3] (TALK-2 WT), the “Fold Rb+ activation” value was determined as 9.12 fold. The “deactivation time constant τ of tail currents” value in test [5] is 17.5 ± 1.7 ms; in test [6], 3.0 ± 0.2 ms.
Take `O=C(NCc1ccccc1-c1ccccc1C(=O)NCCc1ccccn1)OCc1ccccc1` [S9947]: the “blocker inhibition upon activation by 2-APB” value in test [1] is “strong inhibition”. Also, the “Residual currents with 50 µM S9947” value stood at 6.15% in test [1] (TALK-2 WT + 1.0 mM 2-APB), 98.48% in test [1] (TALK-2 WT) and 41.47% in test [2] (50 µM S9947). Further, the “blocker inhibition of unstimulated TALK-2 channels” value in test [1] is recorded as “little inhibition”.

The values above are taken from article PMC11364775, “Ion occupancy of the selectivity filter controls opening of a cytoplasmic gate in the K2P channel TALK-2” (Nature Communications, 2024).
